The numbers were not newly measured in PMC7444767 (British Journal of Clinical Pharmacology, 2020), which cites them from elsewhere.

The data set deals with EGFR kinases. The following applies: cited from earlier work.

For `C=CC(=O)N1CCC[C@@H](n2nc(-c3ccc(Oc4ccccc4)cc3)c3c(N)ncnc32)C1` [ibrutinib, reference compound], the “Inhibition of the EGFR family of kinases” value is “potent irreversible inhibitor”.
